In publication PMC12428754, “Testing Strategies for Metabolite-Mediated Neurotoxicity” (International Journal of Molecular Sciences, 2025):
Where two headings read alike, the source gives them in different places.

What was measured:
[1] = test system: hiPSC-derived immature human dorsal root ganglia neuron-like cells; experiment: PeriTox (UKN5a) neurite outgrowth assay; assay type: cell-based; details: for parent/metabolite potency ratio (BMC25): listed under the metabolite
Experimental: PeriTox assay was performed as previously described. In brief, cryopreserved hiPSC-derived immature human dorsal root ganglia neuron-like cells were thawed and plated at a density of 100,000 cells/cm^2 into matrigel-coated 96-well plates. The cells were cultured in 75 µL PeriTox differentiation medium (PDM) consisting of 25% KSR-S and 75% N2-S media supplemented with 1.5 µM CHIR99021, 1.5 µM SU5402, and 5 µM DAPT (KSR-S: knockout DMEM with 15% serum replacement, 1x Glutamax, 1x nonessential amino acids, and […] beta-mercaptoethanol; N2-S: DMEM/F12, with 2 mM Glutamax, 0.1 mg/mL apotransferrin, 1.55 mg/mL glucose, 25 µg/mL insulin, […] putrescine, 30 nM selenium, and 20 nM progesterone). After one hour, 25 µL PDM with 4x concentrated serial dilutions of the test compounds was added to the cells.
The image acquisition and analysis were conducted according to established protocols. The cells were stained with Hoechst H-33342 (1 µg/mL) to visualise nuclei and calcein-AM (1 µM) to label viable cell structures. Fluorescent images were acquired using an automated imaging system. An image analysis algorithm detected nuclei to define somatic regions, which were then excluded from the total calcein-positive area. The remaining signal was quantified as the neurite area.
In the first step, matched technical replicates were averaged. […] For visualisation, GraphPad Prism 9 was used. […]
Supplementary Figure S1: Comparison of data from the MitoMet test and the PeriTox test. A) Exposure scheme for the PeriTox test (UKN5a):
For testing, cryopreserved hiPSC-derived immature human dorsal root ganglia neuron-like cells were thawed and plated into 96-well plates. Cells were treated with toxicants at one h after plating. Neurite outgrowth and viability were determined at 24 h later, using automated high content imaging. B) Benchmark concentrations (BMC25) were calculated as a measure for “onset of toxicity” for the MitoMet (UKN4b; as described in Figure 1) and UKN5a assay. If no BMC could be determined, the highest tested concentration was used as surrogate endpoint. The arrows indicate the sensitivity shifts of parent vs metabolite in the respective assay. […]

LUHMES cells = experiment: MitoMet (UKN4b) neurite outgrowth assay; assay type: cell-based, human; details: for IC25: benchmark response 25%, neurite area, 24 h exposure, three independent experiments, read-out: BMC25 neurite outgrowth
Experimental: Figure 1 (A) A strategy scheme to assess metabolite-mediated hazard in NAMs used for neurotoxicity or developmental neurotoxicity. Parent and metabolite compounds are tested separately in the respective assay. This strategy is applicable when there is prior knowledge of metabolite formation. A decision rule based on the relative toxicities (X) of the parent and metabolite may be applied to decide whether next-generation risk assessment (NGRA) should be applied to the metabolite. The value of X may be defined according to the problem formulation and the NAM used. (B) An assay scheme of the neurite outgrowth assay used here for exemplification: Proliferating LUHMES cells were replated one day before differentiation was initiated (day −1). After two days (day 2) in differentiation medium, the cells were replated into assay format (96-well). At this point, neurite growth was re-initiated. The cells were treated with toxicants 1 h after replating. Neurite outgrowth and viability were determined 24 h later, using automated high content imaging. (C) Comparison of neurite outgrowth of cultures treated with bromethalin and desmethyl-bromethalin one exemplary parent/metabolite pair (chemical structures shown). […] The curves are based on data from three independent experiments and were fitted using a four-parameter Hill function. Data points shown are arithmetic means of data from independent experiments ±SEM. In each independent experiment, the technical replicates were measured and averaged. A benchmark response (BMR) of 25% was used as specified in the detailed assay description, and the respective benchmark concentration (BMC25) was determined. […] (D) Microscopic images of calcein-stained LUHMES cells. Similar images are used for neurite quantification. Treatment with 40 nM of the parent (left) or metabolite (right). The scale bar in orange corresponds to 50 µm. […] It stands under panel C and to the right of panel D, and was assigned to C.
The MitoMet neurite outgrowth assay was performed as previously described. In brief, all cell culture dishes and flasks were pre-coated with 50 μg/mL poly-l-ornithine (PLO) and 1 μg/mL fibronectin. Proliferating LUHMES cells were maintained in AdvDMEM/F12 containing L-glutamine (2 mM), N2 supplement (1x), and FGF (40 ng/mL). For pre-differentiation, the cells were replated at a density of 46,000 cells/cm^2 one day prior to the induction of differentiation (defined as the day of differentiation, Day −1). Differentiation was initiated by exchanging the culture medium for AdvDMEM/F12 supplemented with L-glutamine (2 mM), N2 supplement (1x), dibutyryl-cAMP (1 mM), tetracycline (1 µg/mL), and GDNF (2 ng/mL). After two days of differentiation (Day 2), the cells were replated (100,000 cells/cm^2) into 96-well plates. The final assay medium consisted of glucose-free AdvDMEM/F12 supplemented with galactose (18 mM), L-glutamine (2 mM), and tetracycline (1 µg/mL). One hour after replating, the cells were treated with a 10× concentrated stock solution of the test compound. Neurite outgrowth and viability were determined 24 h later, using automated high content imaging.
The image acquisition and analysis were conducted according to established protocols. The cells were stained with Hoechst H-33342 (1 µg/mL) to visualise nuclei and calcein-AM (1 µM) to label viable cell structures. Fluorescent images were acquired using an automated imaging system.

[2] = test system: hiPSC-derived neural crest-like cells; experiment: cMINC (UKN2) neural crest cell migration assay; assay type: cell-based, human; details: listed under the metabolite
Experimental: Figure 6 The transfer of the metabolisation module to the neural crest cell migration assay (cMINC). (A) A schematic of the cMINC (circular migration of neural crest cells) assay. The cells were seeded around a central stopper to create a cell-free circular area. Migration was initiated 24 h after seeding by removing the stopper. This is defined as the day of migration (DoM) 0. On DoM 1, the cells were exposed to toxicants. After 24 h of exposure, both cell migration and viability were quantified, using automated high-content imaging. (B) Compatibility of the metabolisation module (preincubation with 500 µg/mL S9 at 37 °C for 2 h) with the cMINC assay: The setup was as described in Figure 4 and as exemplified in Figure 5A. No compound was added (solvent control). The S9 mixture (at 500 µg/mL ± NADPH) was added to the normal cell culture medium of the cMINC assay (so that the addition was 10% of the total volume). Data are from three independent experiments. (C,D) The concentration-dependent effects on migration were evaluated for metabolite mixtures generated from bromethalin (C) or chlorfenapyr (D). […] The arrows indicate the direction of sensitivity shift between NADPH-dependent and -independent metabolite mixtures, with accompanying fold change values. The concentrations are given as nominal concentrations of the parent compound. Abbreviations: n.s., not significant. TEXT PRINTED IN THE PICTURE: (C) Bromethalin: x30 | (D) Chlorfenapyr: x15
The MINC assay was performed as previously described. Briefly, 96-well plates were prepared by inserting a central 2 mm diameter stopper (Platypus Technologies, Madison, WI, USA) into pre-coated wells with a composite poly-L-ornithine (PLO; 10 µg/mL), fibronectin (1 µg/mL), and laminin (1 µg/mL) matrix. […] After a further 24 h (DoM 2), cell migration and viability were assessed. […] High content imaging was performed, and data were analysed using the RingAssay V1 software (http://invitrotox.uni-konstanz.de/, accessed on 3 February 2025). […]

O=C(c1ccccc1)c1ccccc1 [Benzophenone]
effect on peripheral neurite outgrowth ([1]; result in words): neither benzophenone nor its hydroxy metabolite showed any significant effect
IC25 (LUHMES cells; Homo sapiens): > 500 µM

COC(=O)Nc1nc2ccccc2[nH]1 [Carbendazim]
parent/metabolite potency ratio (BMC25) [1]: 0.2
IC25 (LUHMES cells; Homo sapiens): 4.8 µM

O=[N+]([O-])c1cc([N+](=O)[O-])c(Nc2c(Br)cc(Br)cc2Br)c(C(F)(F)F)c1 [Desmethyl-bromethalin]
parent/metabolite potency ratio (BMC25) [1]: 3
neurite area, metabolite compared to parent at equimolar concentrations (LUHMES cells; 40 nM, calcein-stained LUHMES cells): clear reduction in the neurite area
IC25 (LUHMES cells): 0.014 µM
fold change between BMC25 values of parent and metabolite (potency ratio, parent divided by metabolite) (LUHMES cells; listed under the metabolite, >1 = metabolite more potent): 57 fold
increase in potency of metabolite compared to parent (BMC25 ratio) [2]: 44 fold
